Experimental data taken from US12544375B2, “Small molecule therapeutic for parkinson's disease paired with a biomarker of therapeutic activity” (The Board of Trustees of the Leland Stanford Junior …, priority 2019, dated 2026).

Assays:
[1] = molecular target: T1, DMiro (Drosophila melanogaster, UniProt Q8IMX7); assay: DMiro level in PD flies fed compound, Western blot; assay type: in vivo, fly; settings: 2.5 μM, mutant LRRK2, PINK1 and SNCA flies
T1 construct: PD flies were fed with 2.5 μM Miro1 Reducer for the indicated time periods and lysed for blotting DMiro; from tissue; host or cells: whole flies (mutant LRRK2, PINK1 null) or heads (mutant SNCA flies)
T1 sequence (Q8IMX7 1-652): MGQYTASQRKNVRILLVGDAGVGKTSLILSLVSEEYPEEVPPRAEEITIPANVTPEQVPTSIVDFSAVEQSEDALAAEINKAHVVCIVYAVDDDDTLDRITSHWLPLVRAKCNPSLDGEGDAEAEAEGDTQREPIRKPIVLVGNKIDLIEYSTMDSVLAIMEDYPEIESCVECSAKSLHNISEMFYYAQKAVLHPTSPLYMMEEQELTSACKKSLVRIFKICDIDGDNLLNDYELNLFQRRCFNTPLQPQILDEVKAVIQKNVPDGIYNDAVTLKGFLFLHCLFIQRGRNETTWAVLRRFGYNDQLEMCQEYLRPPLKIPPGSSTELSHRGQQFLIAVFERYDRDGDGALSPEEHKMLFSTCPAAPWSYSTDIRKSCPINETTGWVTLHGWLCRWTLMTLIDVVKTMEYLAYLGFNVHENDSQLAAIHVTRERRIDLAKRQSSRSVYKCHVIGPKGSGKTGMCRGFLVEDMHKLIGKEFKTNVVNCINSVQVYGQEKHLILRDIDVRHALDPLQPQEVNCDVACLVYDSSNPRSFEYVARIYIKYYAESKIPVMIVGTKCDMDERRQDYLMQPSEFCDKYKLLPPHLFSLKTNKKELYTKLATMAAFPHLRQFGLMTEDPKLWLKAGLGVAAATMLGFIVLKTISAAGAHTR
Procedure: (§1) FIG. 8. Related to FIG. 2-4. Miro1 Reducer in Human Cell and Fly Models. (A) Fibroblasts from Healthy-1 and PD-2 were treated, lysed, and blotted as indicated. Band intensities are normalized to those of GAPDH from the same blots and compared to “Healthy-1, no treatment”. n=4 independent experiments. (B) Fibroblasts from PD-2 were treated and immunostained as indicated. The intensity was quantified for each cell across 264-320 cells from 3 independent experiments, compared to “no treatment”. (C) Fibroblasts were treated, immunoprecipitated (IPed) with anti-Miro1, and blotted as indicated. Similar results were observed twice. (D) Similar as in (C), fibroblasts were treated as indicated, and IPed with anti-Miro1. The GTPase activity of the IPed Miro1 protein was measured as described in Method. […] The MitoSox intensity was quantified for each cell across 106-161 cells from 3 coverslips. […] The TMRM intensity was measured for each cell across 48-60 cells from 3 independent experiments, and expressed as a fraction of the mean of “Healthy-1, no treatment”. […] The movement (the intensity of non-yellow) was quantified for each cell as described in (Tsai et al., 2014) across 22-31 cells from 3 transfections. […] (1) Left: The percentage of TH-positive iPSC-derived neurons out of total cells (Dapi-positive) is calculated after immunocytochemistry under 20× as described in FIG. 3. […]

[2] = system: Miro1 mRNA; assay: Miro1 mRNA expression by qPCR in fibroblasts; assay type: cell-based, human
Procedure: FIG. 8. Related to FIG. 2-4. Miro1 Reducer in Human Cell and Fly Models. (A) Fibroblasts from Healthy-1 and PD-2 were treated, lysed, and blotted as indicated. Band intensities are normalized to those of GAPDH from the same blots and compared to “Healthy-1, no treatment”. n=4 independent experiments. (B) Fibroblasts from PD-2 were treated and immunostained as indicated. The intensity was quantified for each cell across 264-320 cells from 3 independent experiments, compared to “no treatment”. (C) Fibroblasts were treated, immunoprecipitated (IPed) with anti-Miro1, and blotted as indicated. Similar results were observed twice. […] The GTPase activity of the IPed Miro1 protein was measured as described in Method. […] The MitoSox intensity was quantified for each cell across 106-161 cells from 3 coverslips. […] The TMRM intensity was measured for each cell across 48-60 cells from 3 independent experiments, and expressed as a fraction of the mean of “Healthy-1, no treatment”. […] The movement (the intensity of non-yellow) was quantified for each cell as described in (Tsai et al., 2014) across 22-31 cells from 3 transfections. […] (1) Left: The percentage of TH-positive iPSC-derived neurons out of total cells (Dapi-positive) is calculated after immunocytochemistry under 20× as described in FIG. 3. […]
PCR. […] Concentrations of total RNA were measured using a Nano Drop. […]

[3] = system: healthy-1 or PD-2 fibroblasts; assay: Mitochondrial morphology and membrane potential, TMRM staining; assay type: cell-based, human; settings: 10 μM for 30 hrs
Procedure: as §1

O=C(Nc1ccc(Nc2cc(-n3ccnc3)ncn2)cc1)Nc1cccc(F)c1 [Miro1 Reducer]
DMiro band intensity in PD flies [1]: trend of DMiro reduction
Miro1 mRNA expression (qPCR) [2]: nor did it change Miro1 mRNA expression
general mitochondrial morphology and ΔΨm (TMRM) [3]: did not affect
